{
  "source": "patent US20230174545A1",
  "about": "“HETEROCYCLIC COMPOUNDS AS BET INHIBITORS” (Nuvation Bio Inc., priority 2020, published 2023)",
  "key": {"BRD4-1": {"molecular_target": "T1, BRD4-1 (Homo sapiens, UniProt O60885)", "T1 construct": "purchased Reaction Biology Corp", "test": "Bromodomain and Extraterminal Domain (BET) binding assay (Alpha, Reaction Biology Corp.), BRD4-1", "conditions": "protein 20 nM, ligand histone H4 peptide (1-21) K5/8/12/16Ac-biotin 20 nM", "procedure": "(§1) The bromodomain binding assays are performed by Reaction Biology Corp., Malvern, Pa., USA (www.reactionbiology.com). The BET binding assays are conducted in 384 well microplates in assay buffer (50 mM HEPES-HCl, pH 7.5, 100 mM NaCl, 1 mg/ml BSA, 0.05% CHAPS, and 0.5% DMSO) with compounds added as DMSO stocks at a single concentration or with 10-point dose response titrations. BET protein or assay buffer are delivered to the appropriate wells of the microplate. Test compound is then delivered by acoustic technology via a Labcyte Echo550 liquid handler. The microplate is centrifuged for 5 min and pre-incubated for 30 min at RT with gentle shaking. The ligand (histone H4 peptide (1-21) K5/8/12/16Ac-biotin) is delivered and the microplate is again centrifuged for 5 min and allowed to incubate for 30 min at RT with gentle shaking. Donor beads are then added in the absence of light and the microplate is centrifuged and gently shaken. After 5 min, acceptor beads are added in the absence of light and the microplate is centrifuged and gently shaken in the dark for 60 min. The microplate is read using a Perkin Elmer EnSpire Alpha plate reader (λ Ex/λ Em=680/520-620 nm). Percent inhibition is calculated relative to positive and negative controls on a per plate basis. For titration experiments, IC50 values are determined by fitting the percent inhibition versus compound concentration. […]"}, "BRD4-2": {"molecular_target": "T2, BRD4-2 (Homo sapiens, UniProt O60885)", "T2 construct": "purchased Reaction Biology Corp", "test": "Bromodomain and Extraterminal Domain (BET) binding assay (Alpha, Reaction Biology Corp.), BRD4-2", "conditions": "protein 130 nM, ligand histone H4 peptide (1-21) K5/8/12/16Ac-biotin 70 nM", "procedure": "as §1"}},
  "data": [
    {"smiles": "CCNC(=O)c1cc2c(=O)n(C)cc(-c3cc(NS(=O)(=O)CC)ccc3Oc3ccc(F)cc3F)c2o1", "note": "[Compound 65, 7-(2-(2,4-difluorophenoxy)-5-(ethylsulfonamido)phenyl)-N-ethyl-5-methyl-4-oxo-4,5-dihydrofuro[3,2-c]pyridine-2-carboxamide]", "values": [
      {"measurement": "IC50", "setting": "BRD4-1", "result": 4, "unit": "nM"},
      {"measurement": "IC50", "setting": "BRD4-2", "result": 3, "unit": "nM"}
    ]},
    {"smiles": "CCNC(=O)c1cc2c(=O)n(C)cc(-c3cc(C(C)(C)O)ccc3Oc3c(C)cc(F)cc3C)c2o1", "note": "[Compound 1, N-ethyl-7-(2-(4-fluoro-2,6-dimethylphenoxy)-5-(2-hydroxypropan-2-yl)phenyl)-5-methyl-4-oxo-4,5-dihydrofuro[3,2-c]pyridine-2-carboxamide]", "values": [
      {"measurement": "IC50", "setting": "BRD4-1", "result": 2370, "unit": "nM"},
      {"measurement": "IC50", "setting": "BRD4-2", "result": 0.7, "unit": "nM"}
    ]}
  ]
}
